What is called Ki is a measure of affinity in units of concentration, obtained from inhibition or displacement.

Our source for the Ki values is patent publication US8063053B2, “1-(arylsulfonyl)-4-(piperazin-1-yl)-1H-benzimidazoles as 5-hydroxytryptamine-6 ligands” (Wyeth LLC, priority 2008, dated 2011).

The assay deals with T1, serotonin 5-HT6 receptor subtype (Homo sapiens, UniProt P50406).
T1 construct: host or cells: CHO-Dukx-A2 cells, clone 50-7
T1 sequence (P50406 whole entry): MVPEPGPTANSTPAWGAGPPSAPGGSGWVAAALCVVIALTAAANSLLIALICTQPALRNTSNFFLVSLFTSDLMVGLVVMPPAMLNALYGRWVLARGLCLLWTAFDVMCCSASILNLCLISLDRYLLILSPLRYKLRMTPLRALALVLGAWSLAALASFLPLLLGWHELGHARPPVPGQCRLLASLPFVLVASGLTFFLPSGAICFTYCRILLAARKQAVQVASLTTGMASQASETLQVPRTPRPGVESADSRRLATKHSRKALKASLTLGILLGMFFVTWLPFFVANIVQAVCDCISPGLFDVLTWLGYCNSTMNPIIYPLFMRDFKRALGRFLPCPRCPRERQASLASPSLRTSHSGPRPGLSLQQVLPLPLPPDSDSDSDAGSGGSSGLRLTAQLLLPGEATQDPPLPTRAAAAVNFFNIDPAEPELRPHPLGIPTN
In words: 5-HT6 binding affinity ([3H]-LSD SPA binding). To be noted: read-out: 5-HT6 binding Ki.
With `O=S(=O)(c1ccccc1C(F)(F)F)n1cnc2c(N3CCNCC3)cccc21` [Example 41, 4-piperazin-1-yl-1-{[2-(trifluoromethyl)phenyl]sulfonyl}-1H-benzimidazole], the inhibitory constant (Ki) was 1.06 nM.

With `O=S(=O)(c1cccc(C(F)(F)F)c1)n1cnc2c(N3CCNCC3)cccc21` [Example 42, 4-piperazin-1-yl-1-{[3-(trifluoromethyl)phenyl]sulfonyl}-1H-benzimidazole], the Ki stood at 1.13 nM.

As to `Cc1nc2c(N3CCNCC3)cccc2n1S(=O)(=O)c1ccc2ccccc2c1` [Example 43, 2-methyl-1-(2-naphthylsulfonyl)-4-piperazin-1-yl-1H-benzimidazole], the Ki came out at 1.05 nM.

For `COc1ccccc1S(=O)(=O)n1cnc2c(N3CCNCC3)cccc21` [Example 44, 1-[(2-methoxyphenyl)sulfonyl]-4-piperazin-1-yl-1H-benzimidazole], the Ki amounted to 0.156 nM.

`COc1cccc(S(=O)(=O)n2c(C)nc3c(N4CCNCC4)cccc32)c1` [Example 45, 1-[(3-methoxyphenyl)sulfonyl]-2-methyl-4-piperazin-1-yl-1H-benzimidazole]: the Ki stood at 2.07 nM.

As for `Cc1nc2c(N3CCNCC3)cccc2n1S(=O)(=O)c1ccccc1OC(F)(F)F` [Example 46, 2-methyl-4-piperazin-1-yl-1-{[2-(trifluoromethoxy)phenyl]sulfonyl}-1H-benzimidazole], the Ki was determined as 1.74 nM.

On to `Cc1ccccc1S(=O)(=O)n1c(C)nc2c(N3CCNCC3)cccc21` [Example 47, 2-methyl-1-[(2-methylphenyl)sulfonyl]-4-piperazin-1-yl-1H-benzimidazole], for which the inhibitory constant (Ki) came out at 2.26 nM.

Regarding `Cc1nc2c(N3CCNCC3)cccc2n1S(=O)(=O)c1ccccc1C(F)(F)F` [Example 48, 2-methyl-4-piperazin-1-yl-1-{[2-(trifluoromethyl)phenyl]sulfonyl}-1H-benzimidazole], the Ki stood at 2.94 nM.

For the compound `Cc1nc2c(N3CCNCC3)cccc2n1S(=O)(=O)c1cccc(C(F)(F)F)c1` [Example 49, 2-methyl-4-piperazin-1-yl-1-{[3-(trifluoromethyl)phenyl]sulfonyl}-1H-benzimidazole], the inhibitory constant (Ki) was 0.982 nM.

For the compound `O=S(=O)(c1cccc2c(Cl)cccc12)n1cnc2c(N3CCNCC3)cccc21` [Example 50, 1-[(5-chloro-1-naphthyl)sulfonyl]-4-piperazin-1-yl-1H-benzimidazole], the inhibition constant (Ki) worked out at 1.36 nM.

Consider `Cc1ccc(S(=O)(=O)n2c(C)nc3c(N4CCNCC4)cccc32)c2ccccc12` [Example 51, 2-methyl-1-[(4-methyl-1-naphthyl)sulfonyl]-4-piperazin-1-yl-1H-benzimidazole], for which the inhibitory constant (Ki) was found to be 6.27 nM.

Consider `COc1ccccc1S(=O)(=O)n1c(C)nc2c(N3CCNCC3)cccc21` [Example 52, 1-[(2-methoxyphenyl)sulfonyl]-2-methyl-4-piperazin-1-yl-1H-benzimidazole], for which the Ki came to 1.89 nM.

On to `CC1CN(c2cccc3c2ncn3S(=O)(=O)c2ccccc2Cl)CCN1` (stereo not drawn) [Example 53, 1-[(2-chlorophenyl)sulfonyl]-4-(3-methylpiperazin-1-yl)-1H-benzimidazole], for which the inhibition constant Ki came to 1.34 nM.

In the case of `CC1CN(c2cccc3c2ncn3S(=O)(=O)c2cccc(Cl)c2)CCN1` (stereo not drawn) [Example 54, 1-[(3-chlorophenyl)sulfonyl]-4-(3-methylpiperazin-1-yl)-1H-benzimidazole], the Ki turned out to be 1.92 nM.

Regarding `Cc1cccc(S(=O)(=O)n2cnc3c(N4CCNC(C)C4)cccc32)c1` (stereo not drawn) [Example 55, 1-[(3-methylphenyl)sulfonyl]-4-(3-methylpiperazin-1-yl)-1H-benzimidazole], the inhibitory constant (Ki) worked out at 2.47 nM.

`COc1ccccc1S(=O)(=O)n1cnc2c(N3CCNC(C)C3)cccc21` (stereo not drawn) [Example 56, 1-[(2-methoxyphenyl)sulfonyl]-4-(3-methylpiperazin-1-yl)-1H-benzimidazole]: the Ki came to 2.35 nM.

Take `CC1CN(c2cccc3c2ncn3S(=O)(=O)c2ccccc2OC(F)(F)F)CCN1` (stereo not drawn) [Example 57, 4-(3-methylpiperazin-1-yl)-1-{[2-(trifluoromethoxy)phenyl]sulfonyl}-1H-benzimidazole]: the Ki was 2.09 nM.

On to `Cc1c(Cl)cccc1S(=O)(=O)n1cnc2c(N3CCNC(C)C3)cccc21` (stereo not drawn) [Example 58, 1-[(3-chloro-2-methylphenyl)sulfonyl]-4-(3-methylpiperazin-1-yl)-1H-benzimidazole], for which the Ki worked out at 1.73 nM.

For `CC(C)c1nc2c(N3CCNCC3)cccc2n1S(=O)(=O)c1ccccc1Cl` [Example 59, 1-[(2-chlorophenyl)sulfonyl]-4-(1-methylethyl)-4-piperazin-1-yl-1H-benzimidazole], the inhibition constant (Ki) amounted to 0.463 nM.

As to `CC(C)c1nc2c(N3CCNCC3)cccc2n1S(=O)(=O)c1cccc(Cl)c1` [Example 60], the inhibition constant (Ki) turned out to be 1.08 nM.

On to `CC(C)c1nc2c(N3CCNCC3)cccc2n1S(=O)(=O)c1cccc2ccccc12` [Example 61, 2-(1-methylethyl)-1-(naphthalen-1-ylsulfonyl)-4-piperazin-1-yl-1H-benzimidazole], for which the inhibitory constant (Ki) is 0.6 nM.

Turning to `CC(C)c1nc2c(N3CCNCC3)cccc2n1S(=O)(=O)c1cccc2c(Cl)cccc12` [Example 62, 1-[(5-chloronaphthalen-1-yl)sulfonyl]-2-(1-methylethyl)-4-piperazin-1-yl-1H-benzimidazole], the Ki is 1.47 nM.

`CC(C)c1nc2c(N3CCNCC3)cccc2n1S(=O)(=O)c1ccccc1OC(F)(F)F` [Example 63, 2-(1-methylethyl)-4-piperazin-1-yl-1-{[2-(trifluoromethoxy)phenyl]sulfonyl}-1H-benzimidazole]: the inhibition constant (Ki) was 1.14 nM.

Turning to `Cc1ccc(S(=O)(=O)n2c(C(C)C)nc3c(N4CCNCC4)cccc32)c2ccccc12` [Example 64, 2-(1-methylethyl)-1-[(4-methylnaphthalen-1-yl)sulfonyl]-4-piperazin-1-yl-1H-benzimidazole], the Ki was found to be 1.6 nM.

As to `COc1ccc(Cl)cc1S(=O)(=O)n1cnc2c(N3CCNCC3)cccc21` [Example 65, 1-[(5-chloro-2-methoxyphenyl)sulfonyl]-4-piperazin-1-yl-1H-benzimidazole], the Ki came out at 3.56 nM.

With `COc1ccc(Br)cc1S(=O)(=O)n1cnc2c(N3CCNCC3)cccc21` [Example 66, 1-[(5-bromo-2-methoxyphenyl)sulfonyl]-4-piperazin-1-yl-1H-benzimidazole], the Ki stood at 4.93 nM.

As for `COc1ccc(OC)c(S(=O)(=O)n2cnc3c(N4CCNCC4)cccc32)c1` [Example 67, 1-[(2,5-dimethoxyphenyl)sulfonyl]-4-piperazin-1-yl-1H-benzimidazole], the Ki came to 2.13 nM.

As to `COc1ccc(C)cc1S(=O)(=O)n1cnc2c(N3CCNCC3)cccc21` [Example 68, 1-[(2-methoxy-5-methylphenyl)sulfonyl]-4-piperazin-1-yl-1H-benzimidazole], the inhibition constant (Ki) is 0.498 nM.

As to `COc1cc(C)ccc1S(=O)(=O)n1cnc2c(N3CCNCC3)cccc21` [Example 69, 1-[(2-methoxy-4-methylphenyl)sulfonyl]-4-piperazin-1-yl-1H-benzimidazole], the inhibitory constant (Ki) stood at 2.15 nM.

For the compound `Cc1cccc(Cl)c1S(=O)(=O)n1cnc2c(N3CCNCC3)cccc21` [Example 70, 1-[(2-chloro-6-methylphenyl)sulfonyl]-4-piperazin-1-yl-1H-benzimidazole], the Ki came out at 2.33 nM.

For the compound `O=S(=O)(c1cc(C(F)(F)F)ccc1Cl)n1cnc2c(N3CCNCC3)cccc21` [Example 71, 1-{[2-chloro-5-(trifluoromethyl)phenyl]sulfonyl}-4-piperazin-1-yl-1H-benzimidazole], the Ki was found to be 13.7 nM.

Regarding `Cc1ccc(F)c(S(=O)(=O)n2cnc3c(N4CCNCC4)cccc32)c1` [Example 72, 1-[(2-fluoro-5-methylphenyl)sulfonyl]-4-piperazin-1-yl-1H-benzimidazole], the inhibitory constant (Ki) was found to be 0.254 nM.

Take `Cc1cccc(S(=O)(=O)n2cnc3c(N4CCNCC4)cccc32)c1F` [Example 73, 1-[(2-fluoro-3-methylphenyl)sulfonyl]-4-piperazin-1-yl-1H-benzimidazole]: the Ki came to 0.202 nM.

Turning to `COc1c(F)cccc1S(=O)(=O)n1cnc2c(N3CCNCC3)cccc21` [Example 74, 1-[(3-fluoro-2-methoxyphenyl)sulfonyl]-4-piperazin-1-yl-1H-benzimidazole], the inhibitory constant (Ki) worked out at 0.485 nM.

For the compound `C[C@@H]1CN(c2cccc3c2ncn3S(=O)(=O)c2ccccc2Cl)CCN1` [Example 75, 1-[(2-chlorophenyl)sulfonyl]-4-[(3R)-3-methylpiperazin-1-yl]-1H-benzimidazole], the inhibition constant (Ki) worked out at 1.19 nM.

As to `C[C@@H]1CN(c2cccc3c2ncn3S(=O)(=O)c2cccc(Cl)c2)CCN1` [Example 76, 1-[(3-chlorophenyl)sulfonyl]-4-[(3R)-3-methylpiperazin-1-yl]-1H-benzimidazole], the Ki is 2.35 nM.

Take `Cc1c(Cl)cccc1S(=O)(=O)n1cnc2c(N3CCN[C@H](C)C3)cccc21` [Example 77, 1-[(3-chloro-2-methylphenyl)sulfonyl]-4-[(3R)-3-methylpiperazin-1-yl]-1H-benzimidazole]: the Ki stood at 1.2 nM.

On to `C[C@@H]1CN(c2cccc3c2ncn3S(=O)(=O)c2cccc3ccccc23)CCN1` [Example 78, 4-[(3R)-3-methylpiperazin-1-yl]-1-(naphthalen-1-ylsulfonyl)-1H-benzimidazole], for which the Ki came to 1.28 nM.

Consider `C[C@H]1CN(c2cccc3c2ncn3S(=O)(=O)c2ccccc2Cl)CCN1` [Example 79, 1-[(2-chlorophenyl)sulfonyl]-4-[(3S)-3-methylpiperazin-1-yl]-1H-benzimidazole], for which the Ki was found to be 0.282 nM.

With `C[C@H]1CN(c2cccc3c2ncn3S(=O)(=O)c2cccc(Cl)c2)CCN1` [Example 80, 1-[(3-chlorophenyl)sulfonyl]-4-[(3S)-3-methylpiperazin-1-yl]-1H-benzimidazole], the inhibition constant (Ki) was 0.483 nM.

For `C[C@H]1CN(c2cccc3c2ncn3S(=O)(=O)c2cccc3ccccc23)CCN1` [Example 81, 4-[(3S)-3-methylpiperazin-1-yl]-1-(naphthalen-1-ylsulfonyl)-1H-benzimidazole], the inhibition constant (Ki) came to 0.354 nM.

For `Cc1c(Cl)cccc1S(=O)(=O)n1cnc2c(N3CCN[C@@H](C)C3)cccc21` [Example 82, 1-[(3-chloro-2-methylphenyl)sulfonyl]-4-[(3S)-3-methylpiperazin-1-yl]-1H-benzimidazole], the inhibition constant Ki came out at 0.21 nM.
